Molecules are shown by their SMILES.

In the test the target is T1, GST-RIPK1 (recombinant GST-RIPK1 kinase domain (residues 1-327)) (Homo sapiens, UniProt Q13546).
T1 construct: recombinant GST-RIPK1 kinase domain (residues 1-327) enzyme; made in house; host or cells: baculovirus-transfected Sf21 insect cells
T1 sequence (Q13546 1-327): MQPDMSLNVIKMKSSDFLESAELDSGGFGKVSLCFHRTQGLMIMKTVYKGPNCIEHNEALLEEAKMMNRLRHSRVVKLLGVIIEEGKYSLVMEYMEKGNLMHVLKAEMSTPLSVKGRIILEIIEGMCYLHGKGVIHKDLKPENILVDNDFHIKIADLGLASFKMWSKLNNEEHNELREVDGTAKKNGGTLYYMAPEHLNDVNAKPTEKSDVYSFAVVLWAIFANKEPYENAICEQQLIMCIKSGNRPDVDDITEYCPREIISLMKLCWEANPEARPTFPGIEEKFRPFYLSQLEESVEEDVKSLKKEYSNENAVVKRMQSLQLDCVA
Kind of test: RIPK1-ADP-Glo enzymatic assay. The class given is biochemical. The note with it: 25 nM GST-RIPK1, 300 μM ATP, 3 μM dephosphorylated-MBP; 30 minutes pre-incubation, 150 minutes reaction; ten-point titration. As to the method:
The enzymatic activity of RIPK1 is measured using an assay derived from ADP-Glo kit (Promega™), which provides a luminescent-based ADP detection system. Specifically, the ADP generated by RIPK1 kinase is proportionally detected as luminescent signals in a homogenous fashion. In this context, the assessment of the inhibitory effect of small molecules (EC50) is measured by the effectiveness of the compounds to inhibit the ATP to ADP conversion by RIPK1. In this assay, the potency (EC50) of each compound was determined from a ten-point (1:3 serial dilution; top compound concentration of 100000 nM) titration curve using the following outlined procedure. To each well of a white ProxiPlus 384 well-plate, […] of compound (1% DMSO in final assay volume of 3 μL) was dispensed, followed by the addition of 2 μL of 1× assay buffer (25 mM Hepes 7.3, 20 mM MgCl2, 50 mM NaCl, 1 mM DTT, 0.005% Tween20, and 0.02% BSA) containing 37.5 nM of GST-RIPK1 (recombinant GST-RIPK1 kinase domain (residues 1-327) enzyme produced from baculovirus-transfected Sf21 cells: MW=62 kDa). Plates were placed in an ambient temperature humidified chamber for a 30 minutes pre-incubation with compound. Subsequently, each reaction was initiated by the addition of 1 μL 1×assay buffer containing 900 μM ATP and […]. The final reaction in each well of 3 μL consists of 25 nM of GST-RIPK1, 300 μM ATP, and 3 μM dephosphorylated-MBP. Kinase reactions were allowed to proceed for 150 minutes prior to adding ADP-Glo reagents per Promega's outlined kit protocol. Dose-response curves were generated by plotting percent effect (% product conversion; Y-axis) vs. Log10 compound concentrations (X-axis). EC50 values were calculated using a non-linear regression, four-parameters sigmoidal dose-response model.
A general note: ADP-Glo first removes unused ATP, then detects ADP through luciferase.
Usually IC50 stands for the concentration needed to halve the response being measured. `CC1(C(=O)N2C[C@@H]3C[C@H]2c2cncc(C#N)c2O3)CCC1` [Compound 1-12, (2S,5S)-4-(1-methylcyclobutane-1-carbonyl)-2,3,4,5-tetrahydro-2,5-methanopyrido[3,4-f][1,4]oxazepine-9-carbonitrile]: the IC50 amounted to 47 nM.
On to `N#Cc1cncc2c1O[C@H]1C[C@@H]2N(C(=O)C2(C(F)(F)F)CCCC2)C1` [Compound 1-13, (2S,5S)-4-[1-(trifluoromethyl)cyclopentane-1-carbonyl]-2,3,4,5-tetrahydro-2,5-methanopyrido[3,4-f][1,4]oxazepine-9-carbonitrile], for which the IC50 worked out at 130 nM.
For the compound `N#Cc1cncc2c1O[C@H]1C[C@@H]2N(C(=O)C2(C(F)F)CCCC2)C1` [Compound 1-14, (2S,5S)-4-[1-(difluoromethyl)cyclopentane-1-carbonyl]-2,3,4,5-tetrahydro-2,5-methanopyrido[3,4-f][1,4]oxazepine-9-carbonitrile], the IC50 was determined as 51 nM.
In the case of `CC(C)(CC(F)F)C(=O)N1C[C@@H]2C[C@H]1c1cncc(C#N)c1O2` [Compound 1-15, (2S,5S)-4-(4,4-difluoro-2,2-dimethylbutanoyl)-2,3,4,5-tetrahydro-2,5-methanopyrido[3,4-f][1,4]oxazepine-9-carbonitrile] it was 99 nM; in that of `Cc1ncc2c(c1C#N)O[C@H]1C[C@@H]2N(C(=O)C(C)(C)C(F)F)C1` [Compound 1-18, (2S,5S)-4-(3,3-difluoro-2,2-dimethylpropanoyl)-8-methyl-2,3,4,5-tetrahydro-2,5-methanopyrido[3,4-f][1,4]oxazepine-9-carbonitrile], 84 nM; in that of `N#Cc1cncc2c1O[C@H]1C[C@@H]2N(C(=O)C23CCC(C(F)F)(CC2)C3)C1` [Compound 1-19, (2S,5S)-4-[4-(difluoromethyl)bicyclo[2.2.1]heptane-1-carbonyl]-2,3,4,5-tetrahydro-2,5-metanopyrido[3,4-f][1,4]oxazepine-9-carbonitrile], 24 nM.
As to `CC(C)(CC#N)C(=O)N1C[C@@H]2C[C@H]1c1cncc(C#N)c1O2` [Compound 1-20, (2S,5S)-4-(3-cyano-2,2-dimethylpropanoyl)-2,3,4,5-tetrahydro-2,5-methanopyrido[3,4-f][1,4]oxazepine-9-carbonitrile], the IC50 came out at 89 nM.
For the compound `CCC(C#N)(CC)C(=O)N1C[C@@H]2C[C@H]1c1cncc(C#N)c1O2` [Compound 1-21, (2S,5S)-4-(2-cyano-2-ethylbutanoyl)-2,3,4,5-tetrahydro-2,5-methanopyrido[3,4-f][1,4]oxazepine-9-carbonitrile], the IC50 amounted to 366 nM.
For the compound `CC(F)(F)C1(C(=O)N2C[C@@H]3C[C@H]2c2cncc(C#N)c2O3)CCC1` [Compound 1-22, (2S,5S)-4-[1-(1,1-difluoroethyl)cyclobutane-1-carbonyl]-2,3,4,5-tetrahydro-2,5-methanopyrido[3,4-f][1,4]oxazepine-9-carbonitrile], the IC50 is 55 nM.
Take `N#Cc1cncc2c1O[C@H]1C[C@@H]2N(C(=O)C2(C(F)F)CCC2)C1` [Compound 1-23, (2S,5S)-4-[1-(difluoromethyl)cyclobutane-1-carbonyl]-2,3,4,5-tetrahydro-2,5-methanopyrido[3,4-f][1,4]oxazepine-9-carbonitrile]: the IC50 was determined as 88 nM.
Regarding `COC(C)(C)C(=O)N1C[C@@H]2C[C@H]1c1cncc(C#N)c1O2` [Compound 1-24, (2S,5S)-4-(2-methoxy-2-methylpropanoyl)-2,3,4,5-tetrahydro-2,5-methanopyrido[3,4-f][1,4]oxazepine-9-carbonitrile], the IC50 was 288 nM.
As to `CC(C)(C(=O)N1C[C@@H]2C[C@H]1c1cncc(C#N)c1O2)C1CCC1` [Compound 1-25, (2S,5S)-4-(2-cyclobutyl-2-methylpropanoyl)-2,3,4,5-tetrahydro-2,5-methanopyrido[3,4-f][1,4]oxazepine-9-carbonitrile], the concentration for half-maximal inhibition (IC50) amounted to 119 nM.
The same measure for `N#Cc1cncc2c1O[C@H]1C[C@@H]2N(C(=O)C23CCC(CC2)OC3)C1` [Compound 1-26, (2S,5S)-4-(2-oxabicyclo[2.2.2]octane-4-carbonyl)-2,3,4,5-tetrahydro-2,5-methanopyrido[3,4-f][1,4]oxazepine-9-carbonitrile]: 313 nM; for `CC(F)(F)C1(C(=O)N2C[C@@H]3C[C@H]2c2cncc(C#N)c2O3)CC1` [Compound 1-27, (2S,5S)-4-[1-(1,1-difluoroethyl)cyclopropane-1-carbonyl]-2,3,4,5-tetrahydro-2,5-methanopyrido[3,4-f][1,4]oxazepine-9-carbonitrile]: 221 nM; for `CC1(C(=O)N2C[C@@H]3C[C@H]2c2cncc(C#N)c2O3)CCC(F)(F)C1` (stereo partly drawn) [Compound 1-30, (2S,5S)-4-(3,3-difluoro-1-methylcyclopentane-1-carbonyl)-2,3,4,5-tetrahydro-2,5-methanopyrido[3,4-f][1,4]oxazepine-9-carbonitrile]: 66 nM.
For `N#Cc1cncc2c1O[C@H]1C[C@@H]2N(C(=O)C23CCC(C2)C3)C1` [Compound 1-31, (2S,5S)-4-(bicyclo[2.1.1]hexane-1-carbonyl)-2,3,4,5-tetrahydro-2,5-methanopyrido[3,4-f][1,4]oxazepine-9-carbonitrile], the half-inhibitory concentration (IC50) worked out at 54 nM.
Turning to `CC(C)C(C)(C)C(=O)N1C[C@@H]2C[C@H]1c1cncc(C#N)c1O2` [Compound 1-34, (2S,5S)-4-(2,2,3-trimethylbutanoyl)-2,3,4,5-tetrahydro-2,5-methanopyrido[3,4-f][1,4]oxazepine-9-carbonitrile], the IC50 is 24 nM.
Consider `CC(C)(CC(F)(F)F)C(=O)N1C[C@@H]2C[C@H]1c1cncc(C#N)c1O2` [Compound 1-35, (2S,5S)-4-(4,4,4-trifluoro-2,2-dimethylbutanoyl)-2,3,4,5-tetrahydro-2,5-methanopyrido[3,4-f][1,4]oxazepine-9-carbonitrile], for which the IC50 is 483 nM.
Turning to `CC1(C(=O)N2C[C@@H]3C[C@H]2c2cncc(C#N)c2O3)CCC(F)(F)CC1` [Compound 1-36, (2S,5S)-4-(4,4-difluoro-1-methylcyclohexane-1-carbonyl)-2,3,4,5-tetrahydro-2,5-methanopyrido[3,4-f][1,4]oxazepine-9-carbonitrile], the concentration for half-maximal inhibition (IC50) turned out to be 973 nM.
In the case of `CC(C)(CF)C(=O)N1C[C@@H]2C[C@H]1c1cncc(C#N)c1O2` [Compound 1-42, (2S,5S)-4-(3-fluoro-2,2-dimethylpropanoyl)-2,3,4,5-tetrahydro-2,5-methanopyrido[3,4-f][1,4]oxazepine-9-carbonitrile] it was 114 nM; in that of `CCC(F)(F)C(C)(C)C(=O)N1C[C@@H]2C[C@H]1c1cncc(C#N)c1O2` [Compound 1-43, (2S,5S)-4-(3,3-difluoro-2,2-dimethylpentanoyl)-2,3,4,5-tetrahydro-2,5-methanopyrido[3,4-f][1,4]oxazepine-9-carbonitrile], 491 nM.
In the case of `N#Cc1cncc2c1O[C@H]1C[C@@H]2N(C(=O)C2(CC(F)F)CCC2)C1` [Compound 1-44, (2S,5S)-4-[1-(2,2-difluoroethyl)cyclobutane-1-carbonyl]-2,3,4,5-tetrahydro-2,5-methanopyrido[3,4-f][1,4]oxazepine-9-carbonitrile], the IC50 worked out at 254 nM.
The same measure for `N#Cc1cncc2c1O[C@H]1C[C@@H]2N(C(=O)C2CC3(CCCC3)C2)C1` [Compound 1-45, (2S,5S)-4-(spiro[3.4]octane-2-carbonyl)-2,3,4,5-tetrahydro-2,5-methanopyrido[3,4-f][1,4]oxazepine-9-carbonitrile]: 330 nM; for `CC1(C(=O)N2C[C@@H]3C[C@H]2c2cncc(C#N)c2O3)CC1C(F)(F)F` (stereo partly drawn) [Compound 1-46, (2S,5S)-4-[1-methyl-2-(trifluoromethyl)cyclopropane-1-carbonyl]-2,3,4,5-tetrahydro-2,5-methanopyrido[3,4-f][1,4]oxazepine-9-carbonitrile]: 78 nM.
For the compound `N#Cc1cncc2c1O[C@H]1C[C@@H]2N(C(=O)C23CSC(C2)C3)C1` [Compound 1-47, (2S,5S)-4-(2-thiabicyclo[2.1.1]hexane-4-carbonyl)-2,3,4,5-tetrahydro-2,5-methanopyrido[3,4-f][1,4]oxazepine-9-carbonitrile], the IC50 amounted to 22 nM.

The record behind these values is patent US20240228506A1, “RIPK1 INHIBITORS AND METHODS OF USE” (Merck Sharp & Dohme LLC, priority 2021, published 2024).
